The subject of one data set is HT1080 cells. As to the kind of experiment: Proliferation of HT1080 cells (xCELLigence). The format is cell-based, human. To be noted: 10 μM, 2-26 time range. The procedure:
Cell proliferation of HT1080 cells was monitored for 75 hrs using the xCELLigence technology. Cells (1×10^3 cells/well) were seeded on E-plates in growth medium (None) or growth medium plus 10 μM RI-3 and allowed to proliferate at 37° C., 5% CO2. Medium was replaced every 24 hrs (arrows). Impedance value of each well was automatically monitored and expressed as cell index. Data represent mean±SD from a quadruplicate experiment representative of 2 replicates (A). […] In the 2-26 time range the doubling times of cells exposed to diluents or to RI-3 were 16.3828+/−0.22 hrs and 17.7648+/−0.27 hrs, respectively (B).

Data set [1] in a line: Stability in bovine serum, read out by HT1080 migration (xCELLigence). The format is in vitro ADME. To be noted: 10^−3 mol/L in serum 18 hrs at 37° C., then tested at 10 nM. The procedure:
(§1) FIG. 7 The retro-inverso peptide RI-3 is stable when pre-incubated in bovine (A) or human serum (B) as assessed in real time using the xCELLigence technology (A) or in Boyden chambers (B) (Example 7).
(§2) The stability of the retro-inverso peptide RI-3 in bovine and human serum was investigated through incubation of the peptide at a 10^−3 mol/L in serum for 18 hrs at 37° C. HT1080 cells were allowed to migrate toward DMEM (CTRL), 10% FBS (None), 10% FBS plus 10 nM RI-3 or 10% FBS with 10 nM RI-3 pre-incubated with bovine serum and the impedance values were automatically monitored in real time by the xCELLigence system for 18 hrs and expressed as cell index. Data represent the means from a quadruplicate experiment representative of 2 replicates. […] The stability of RI-3 in human serum was further investigated in cell invasion experiments performed in Boyden chambers. HT1080 cells were allowed to invade matrigel for 6 hrs, toward DMEM (CTRL), 10% FBS (None), 10% FBS plus 10 nM RI-3 or 10% FBS with 10 nM RI-3 pre-incubated with human serum. For quantitative analysis of cell invasion, the basal value assessed in the absence of FBS (CTRL) was taken as 100% and all values were reported relative to that. Data are the means±SD from a triplicate experiment. *Statistical significance was calculated against None with p<0.005. […]

A short description of data set [2]: Stability in human serum, read out by HT1080 matrigel invasion in Boyden chambers. The format is in vitro ADME. To be noted: 10^−3 mol/L in serum 18 hrs at 37° C., then 10 nM, invasion 6 hrs. The procedure: as §1, §2
In a further data set the test system is chondrosarcoma Sarc. As to the kind of experiment: Matrigel invasion (xCELLigence RTCA), Sarc. The note with it: 10 nM, 20 hrs. The format is cell-based, human. The procedure:
FIG. 8 At the concentration of 10 nM the retro-inverso peptide RI-3 prevents matrigel invasion of tumor cells from human osteosarcoma Saos-2 (A), chondrosarcoma Sarc (B), melanoma A375 (C), metastatic melanoma A375M6 (D), ovarian carcinoma SKOV-3 cells (E), or primary ovarian cancer cells derived from a tumor excision (OV-53) (F), as monitored in real-time for 20 hr as changes in cell index by the xCELLigence RTCA system (Example 8).
To investigate the ability of RI-3 to prevents matrigel invasion of tumor cells form different tissue origins, human osteosarcoma Saos-2 (A), chondrosarcoma Sarc (B) melanoma A375 (C), metastatic melanoma A375M6 (D), ovarian carcinoma SKOV-3 cells (E) or primary ovarian cancer cells derived from a tumor excision (OV-53) (F) were seeded on polymerized matrigel and allowed to invade matrigel in the absence (None) or in the presence of 10 nM RI-3. Cell invasion was monitored in real-time for 20 hrs as changes in cell index by the xCELLigence RTCA system. Data represent mean±SD from quadruplicate experiments. All cell lines were able to cross matrigel, although to a different extent. In all case RI-3 reduced matrigel invasion by about 30%, 31%, 64%, 57%, 53% and 68%, of Saos-2, Sarc, A375, A375M6, SKOV-3 and OV-53 cells, respectively.

In another data set the test system is HUVECs. The data set is described as follows: Endothelial tube formation on matrigel. The format is cell-based, human. To be noted: 10 nM. The method, then:
FIG. 10 At the concentration of 10 nM the retro-inverso peptide RI-3 inhibits both FBS (61%) and VEGF-triggered (75%) endothelial tube formation. (A) representative pictures taken with an inverted microscope at 100× magnifications. (B) quantitative analysis (Example 10).
Endothelial cells undergo morphological differentiation into an extensive network of capillary-like structures consisting of highly organized three-dimensional cords when seeded on matrigel in the presence of a pro-angiogenic stimuli. HUVECs were suspended in medium (CTRL) or medium with 10% FBS or 40 ng/ml VEGF165, without (None) or with 10 nM RI-3 and seeded on matrigel-coated plates for 6 hrs at 37° C., 5% CO2. Representative pictures were taken with an inverted microscope at 100× magnifications. Scale bar: 10 μm (A). Quantitative analysis of tube formation was calculated as a percentage of tubes formed by cord-like structures counted in the absence of any angiogenic stimulus and considered as 100% (CTRL). Data represent means±SD of two independent experiments performed in duplicate. Statistical significance was calculated against none with *p<0.05, **p<0.001 (B). Both FBS and VEGF promoted endothelial tube formation, reaching 352% and 620%, respectively, above basal. The retro-inverso peptide RI-3 reduced FBS- and VEGF-dependent tube formation by 61% and 75%, respectively.

Molecules are shown by their SMILES. Non-standard residues stand in square brackets, D forms with d. Residues, ends and D or L forms follow the SMILES beside them. Aib = CC(C)(N)C(=O)O

For the compound `CC(=O)N[C@H](Cc1ccc(O)cc1)C(=O)N[C@H](CCCNC(=N)N)C(=O)NC(C)(C)C(=O)N[C@H](CCCNC(=N)N)C(N)=O` [RI-3, Ac-(D)-Tyr-(D)-Arg-Aib-(D)-Arg-NH2] (Ac-[dY][dR][Aib][dR]-NH2), the “doubling time during exponential growth” value in the data set with HT1080 cells is 17.7648 ± 0.27 h. Moreover, in data set [1], the “stability after pre-incubation in bovine serum” value was “stable to enzymatic digestion”. Moreover, the “inhibitory activity retained after pre-incubation with human serum” value in data set [2] turned out to be 81%. The “reduction of matrigel invasion” value in the data set with chondrosarcoma Sarc is recorded as about 31%. In addition, the “reduction of VEGF-dependent tube formation” value with HUVECs (40 ng/ml VEGF165, 6 hrs) is on record as 75%. For the same compound, in the data set with HUVECs (10% FBS, 6 hrs), the “reduction of FBS-dependent tube formation” value was found to be 61%.

Values taken from patent publication US10836792B2, “Retro-inverso peptide inhibitors of cell migration, extracellular matrix and endothelial invasion by tumor cells” (ISTITUTO NAZIONALE TUMORI IRCCS “FONDAZIONE G. PASCALE”, priority 2016, dated 2020).
